Like-named read-outs stand apart in the source and are kept apart here.
Legend:
Type in all cases: cell-based
[1] = test system: chicken blastodermal cells / chicken ESCs; experiment: Derivation and self-renewal culture of chicken ESCs from EGK.X blastodermal cells; details: for emergence of morphologically undifferentiated ESC colonies: EGK.X blastodermal cells from Rhode Island Red eggs, single supplement, FIG. 8A
Protocol: (§1) Freshly laid avian fertile eggs at EGK.X-XII stages were kept at 16° C. before extraction. To harvest cells from yolk, a filter paper-based method was applied. Filter paper with a hole at center was placed on top of the embryo. The outer edge of the filter paper was cut together with the vitelline membranes. Embryo were then released from yolk together with the filter paper and washed in PBS solution. Next, embryo was transferred into a 15 ml tube free of the paper ring and dissociated by pipetting inside N2B27 medium. Dissociated cells were cultured in tissue plates coated with irradiated mouse embryonic fibroblast (MEF) cells as feeder layer. Basal medium used for routine ESC maintenance was N2B27 medium composed of Dulbecco's Modified Eagle Medium/Nutrient Mixture F-12 (DMEM/F12):Neuralbasal (1:1) plus 0.5×N2, 0.5×B27 supplement and 20 μg/ml ovotransferrin with the addition of 1× penicillin-streptomycin. Avian ESC self-renewal was kept with 2.5 μM IWR-1, 2 μM Gö6983, 2 μM SB431542 plus chicken LIF (10 ng/ml for ESCs and 40 ng/ml for other avian ESCs). ESCs were cultured at 38° C. in 5% CO2 with daily medium change. To passage, TrypLE was used to incubate the cells for 5 min and neutralized with basal medium in triple amount. Cells were handled with 5 ml pipette all the time to avoid dissociation into singles. Cells can be frozen in Cellbanker 2 and stored at −150° C.

avian ESCs [2] = experiment: Self-renewal of avian ESCs (species not specified)
Protocol: as §1

[3] = test system: quail blastodermal cells / quail ESCs; experiment: Derivation and self-renewal culture of quail ESCs
Protocol: We tested whether ESCs could be derived from other avian species in OT/2i. We isolated blastodermal cells from fertilized pheasant, duck and turkey eggs and cultured them in OT/2i. […] We examined whether blocking signaling pathways involved in cardiomyocyte differentiation from pluripotent stem cells could improve ESC self-renewal.
as §1, with “ESCs were cultured at 38° C. in 5% CO2 with daily medium change. To passage, TrypLE was used to incubate the cells for 5 min and neutralized with basal medium in triple amount. Cells were handled with 5 ml pipette all the time to avoid dissociation into singles. Cells can be frozen in Cellbanker 2 and stored at −150° C.” left out

avian ESCs [4] = experiment: Induction of primordial germ cells (PGCs) from avian ESCs; details: data not shown
Excerpt: Next, we assessed the potential of chicken ESCs to differentiate into the germ cell lineage. We generated EBs from chicken ESCs and examined the expression of germ cell markers including Dazl, Cvh, Cxcr4, Sycp3 and Stra8. […] To further investigate germ cell differentiation potential of chicken ESCs, we examined the expression of key primordial germ cell (PGC) marker, DAZL by immunofluorescence staining in both undifferentiated chicken ESCs and differentiated EBs. […] A subset of cells (1-3%) in day 3-4 EBs stained positive for DAZL (FIG. 6C). DAZL expression could also be detected inside goose ESC-derived EBs (FIG. 6C).

ostrich ESCs = experiment: Derivation and self-renewal culture of ostrich ESCs
Protocol: as §1

COc1ccc2c(c1)c(C1=C(c3c[nH]c4ccccc34)C(=O)NC1=O)cn2CCCN(C)C [Gö6983]
emergence of morphologically undifferentiated ESC colonies [1]: Morphologically undifferentiated ESC colonies emerged

O=C(Nc1cccc2cccnc12)c1ccc(N2C(=O)[C@@H]3[C@H](C2=O)[C@@H]2C=C[C@H]3C2)cc1 [IWR-1]
emergence of morphologically undifferentiated ESC colonies [1]: Morphologically undifferentiated ESC colonies emerged

NC(=O)c1ccc(-c2nc(-c3ccc4c(c3)OCO4)c(-c3ccccn3)[nH]2)cc1 [SB431542, 4-[4-(2H-1,3-Benzodioxol-5-yl)-5-(pyridin-2-yl)-1H-imidazol-2-yl]benzamide]
chicken ESC self-renewal [1]: stabilize and proliferate chicken ESCs in long-term passages | self-renewal of avian ESCs (avian ESCs [2]): does not promote the self-renewal

human LIF: human leukemia inhibitory factor
quail ESC derivation and long-term self-renewal [3]: cannot be substituted

human ortholog: human ortholog of ovotransferrin
chicken ESC self-renewal [1]: could not be replaced

B1: BMP4: a TGF-β superfamily ligand (protein, UniProt P12644 293-408, looked up)
Bone morphogenetic protein 4: SPKHHSQRARKKNKNCRRHSLYVDFSDVGWNDWIVAPPGYQAFYCHGDCPFPLADHLNSTNHAIVQTLVNSVNSSIPKACCVPTELSAISMLYLDEYDKVVLKNYQEMVVEGCGCR
induction of PGCs (avian ESCs [4]): did not respond

B2: chicken LIF: chicken leukemia inhibitory factor, SEQ ID NO: 2; yeast-derived recombinant (protein, listed as Gallus gallus)
chain: MRLIPAGVVPFVALLLLQRRPVSGRALLGTSSACPTNGLCRANVLEQTRRQVALLNATAQDLFSLYLKCQGEPFSSESDRLCSPSGIFFPPFHVNRTTERKEVMVAMYKLFAFLNASLGNITRDQEELNPMAKELLNRLHNTTKTTRGLISNLTCLLCKHYNIFQVDVSYGESSKDKSAFKKKQQGCQVLRKYVQVIAQAARVLLPHLSPA
chicken ESC self-renewal [1]: stabilize and proliferate chicken ESCs in long-term passages | quail ESC derivation and long-term self-renewal [3]: is necessary | ostrich ESC derivation, maintenance and differentiation (ostrich ESCs): induced differentiation | ostrich ESC derivation, maintenance and differentiation (ostrich ESCs; listed as LIF): differentiating effect
